The text below walks through data of patent US8791258B2, “Pro-fluorescent probes” (The Regents of the University of California, priority 2008, dated 2014).

Series [1] is described as follows: Kinetics of H2O2-mediated boronate deprotection. The following applies: pseudo-first-order conditions, 5 μM dye, 10 mM H2O2. As for the experimental part:
(§1) MitoPY1 features two major visible region absorptions (λabs=489 nm, ε=14,300 M^−1 cm^−1; 510 nm, ε=14,200 M^−1 cm^−1) and a weak emission (λ=540 nm, Φ=0.019, FIG. S1) in 20 mM HEPES, pH 7. […] Kinetics measurements of the H2O2-mediated boronate deprotection were performed under pseudo-first-order conditions (5 μM dye, 10 mM H2O2), giving an observed rate constant of k=2.0(1)×10^−3 s^−1.

Series [2] deals with HeLa cells. Type of series: cell-based. Here is the method: 100 μM H2O2 was then added to one of the petri dishes. At 20 minutes, 50 nM MitoTracker Deep Red, 500 nM Lysotracker Red, and 1 μM Hoechst 33342 were added to both dishes. After an additional 20 minutes (40 minute stimulation total), the two coverslips were put in a single, new petri dish filled with fresh DPBS and confocal images were taken (3.2 μsec pixel time, 100% laser power for 514 line, 4.1% laser power for the 633 line, 26% laser power for the 543 line, scanned using 12-bit multi-track scan mode using a constant receiver gain). Shown above are signals from MitoPY1 (a), MitoTracker Deep Red (b), LysoTracker Red (c), an overlay of MitoTracker Deep Red and MitoPY1 (d), Hoechst (e), and a brightfield image (f) of cells not treated with H2O2, as well as signals from MitoPY1 (g), MitoTracker Deep Red (h), LysoTracker Red (i), an overlay of MitoTracker Deep Red and MitoPY1 (j), Hoechst (k), and a brightfield image (l) of cells treated with H2O2. A 20 μm scale bar shown for all images.
HeLa cells incubated with 5 μM MitoPY1 for 60 min at 37° C. and imaged with MitoPY1 (a), MitoTracker Red and Hoechst (overlay, b), and MitoPY1 with MitoTracker Red (overlay, c). HeLa cells incubated with 5 μM MitoPY1 for 60 min at 37° C. with 100 μM H2O2 added for the final 40 min and imaged with MitoPY1 (d), MitoTracker Red and Hoechst (overlay, e), MitoPY1 and MitoTracker Red (overlay, f), and brightfield (g) with 20 μm scale bar. HeLa cells incubated with 5 μM MitoPY1 for 60 min at 37° C. and imaged with MitoPY1 (h), MitoTracker Red and Hoechst (overlay, i), and MitoPY1 with MitoTracker Red (overlay, j). HeLa cells incubated for 24 h with 1 mM paraquat, then washed and incubated with 5 μM MitoPY1 for 60 min at 37° C. and imaged with MitoPY1 (k), MitoTracker Red and Hoechst (overlay, l), MitoPY1 and MitoTracker Red (overlay, m), and brightfield (n) with 20 μm scale bar.
HEK293 cells were cultured in DMEM (Invitrogen) supplemented with 10% fetal bovine serum (FBS, Hyclone) and glutamine (2 mM). CHO.K1 cells were cultured in DMEM with F-12 supplements, glutamax (Invitrogen), and 5% FBS. Cos-7 cells were cultured in DMEM with high glucose, glutamax, 10% FBS, and non-essential amino acids (Invitrogen). HeLa cells were cultured in DMEM with high glucose, glutamax, and 10% FBS. Two days before imaging, cells were passaged and plated on 18-mm glass coverslips. For all experiments, solutions of dyes (from 5 mM stocks in DMSO) were made in DBPS with calcium chloride and magnesium chloride (Sigma). H2O2 was added by bath application to the medium from a 100 mM aqueous stock. For paraquat treatment, HeLa cells were cultured as described above. One day prior to imaging, 1 mM paraquat was added to cells from a 0.5 M stock solution in water. An equal amount of water was added to control cells at the same time. Cells were then incubated at 37° C., 5% CO2. After 24 hours, the media was exchanged for DPBS with 5 μM dye and incubated for 1 hour.
Confocal fluorescence imaging studies were performed with a Zeiss LSM510 NLO Axiovert 200 laser scanning microscope and a 63× Achroplan IR water-immersion objective lens. Excitation of PY-loaded cells at 510 nm was carried out with an Ar laser and emission was collected using a META detector between 527-580 nm. MitoTracker Deep Red was excited with a 633-nm line and emission was collected between 666-698 nm. LysoTracker Red was excited with a 543-nm line and emission was collected between 580-644 nm. Excitation of Hoechst 33342 was carried out using a MaiTai two-photon laser at 780-nm pulses (mode-locked Ti:sapphire laser, Tsunami Spectra Physics) and emission was collected between 452-537 nm. Image analysis was performed in Adobe Photoshop.
MitoPY1 was tested for its ability to both target the mitochondria and respond to H2O2 in living biological systems. […] Again, co-staining with MitoTracker confirms that the dye is retained in the mitochondria and detects localized rises in H2O2 concentrations.

Series [3] can be described thus: Turn-on fluorescence responses to a panel of biologically relevant ROS. The settings on record: 20 mM HEPES, pH 7, 25° C. Here is the method: Bars represent relative responses at 0, 5, 15, 30, 45, and 60 min after addition of each ROS. Data shown are for 10 mM O2- (with 10 μM catalase), 200 μM NO, and 100 μM for all other ROS. Data were acquired at 25° C. in 20 mM HEPES, pH 7, with excitation at λ=510 nm and emission collected between 518 and 750 nm.
as §1

A short description of series [4]: Absorption and emission properties, fluorescence quantum yield. The series is classed as physicochemical. The following applies: 20 mM HEPES, pH 7. Here is the method: (§2) Millipore water was used to prepare all aqueous solutions. All spectroscopic measurements were performed in 20 mM HEPES buffer, pH 7. Absorption spectra were recorded using a Varian Cary 50 spectrophotometer (Walnut Creek, Calif.). Fluorescence spectra were recorded using a Photon Technology International Quanta Master 4 L-format scanning spectrofluorometer (Lawrenceville, N.J.) equipped with an LPS-220B 75-W xenon lamp and power supply, A-1010B lamp housing with integrated igniter, switchable 814 photon-counting/analog photomultiplier detection unit, and MD5020 motor driver. Samples for absorption and fluorescence measurements were contained in 1-cm×1-cm quartz cuvettes (1.4- or 3.5-mL volume, Starna, Atascadero, Calif.).
as §2, with “recorded on” for “recorded using”, “Creek, Calif.) and fluorescence” for “Creek, Calif.). Fluorescence”, “and emission” for “and fluorescence”, “cuvettes (1.5-mL” for “cuvettes (1.4- or 3.5-mL”, “Calif.). Fluorescence quantum yields were determined by reference to fluorescein in 0.1M NaOH (Φ=0.95).” for “Calif.).”

For series [5], the system named is HeLa cells. The following applies: cited from earlier work.

With `CC1(C)OB(c2ccc3c(c2)Oc2cc(N4CCN(CCCC[P+](c5ccccc5)(c5ccccc5)c5ccccc5)CC4)ccc2C32OC(=O)c3ccccc32)OC1(C)C.[I-]` (centres unmarked) [MitoPY1], the “observed rate constant k of H2O2-mediated boronate deprotection” value in series [1] is on record as 2.0(1)×10^−3 s^−1. For the same compound, the “cell viability during imaging” value in the series with HeLa cells [2] is reported as “cells are viable throughout the imaging experiments”. In addition, in the series with HeLa cells [2] (5 μM probe, 1 h at 37° C.), the “fluorescence of probe-loaded cells without H2O2” value is “faint but measurable levels of fluorescence”. Also, the “subcellular localization (co-staining with MitoTracker Deep Red, LysoTracker Red)” value in the series on HeLa cells [2] (5 μM probe, 50 nM MitoTracker Deep Red, 500 nM LysoTracker Red) is listed as “localized to the mitochondria”. Moreover, the “fluorescence after addition of H2O2 compared to control cells” value in the series with HeLa cells [2] (100 μM H2O2) is “marked localized increase in fluorescence”. Moreover, the “detection of endogenous mitochondrial H2O2 in paraquat-treated cells” value in the series with HeLa cells [2] (1 mM paraquat 24 h, then 5 μM probe, compared to control cells) is given as “clear increases in mitochondrial-localized H2O2 levels”. Moreover, the “selectivity of turn-on response for H2O2 over other ROS” value in series [3] is “selective for H2O2 over ROS like superoxide, nitric oxide, and hydroxyl radical”. Moreover, the “fluorescence quantum yield Φ” value in series [4] (by reference to fluorescein) stood at 0.019. Also, the “extinction coefficient ε at 489 nm” value in series [4] (λabs 489 nm) is 14,300 M^−1 cm^−1. In series [4] (λabs 510 nm), the “extinction coefficient ε at 510 nm” value was 14,200 M^−1 cm^−1.
As usually defined, the IC50 is the midpoint of a concentration-inhibition curve. For `C[n+]1ccc(-c2cc[n+](C)cc2)cc1` [paraquat], the IC50 in the series on HeLa cells [5] was 1020 µM.
